Measured values from ChEMBL document CHEMBL4265990, “Synthesis, anticancer activity and cytotoxicity of galactosylated epothilone B” (Bioorg Med Chem, 2018).

Key:
[1] = system: MCF7; assay: Antiproliferative activity against human MCF7 cells at 0.01 to 100 nmol/L after 2 days by MTT assay; type: functional
[2] = system: MCF7; assay: Antiproliferative activity against human MCF7 cells after 2 days by MTT assay; type: functional, cell-based; conditions: for IC50: MCF7, 48 h

SMILES | Activity [1] | IC50 [2] [nM] | Activity [2]
C/C(=C\c1csc(C)n1)[C@@H]1C[C@@H]2O[C@]2(C)CCC[C@H](C)[C@H](OC(=O)CO[C@@H]2O[C@H](CO)[C@H](O)[C@H](O)[C@H]2O)[C@@H](C)C(=O)C(C)(C)[C@@H](O)CC(=O)O1 | 7.9 - 98.6% | 5730 | –
C/C(=C\c1csc(C)n1)[C@@H]1C[C@@H]2O[C@]2(C)CCC[C@H](C)[C@H](O)[C@@H](C)C(=O)C(C)(C)[C@@H](O)CC(=O)O1 [PATUPILONE] | 3 - 80.3% | 38.2 | Dose-dependent effect
